Measured values from patent publication US6407041B1, “Substituted 2,4-diamino-1,3,5-triazines” (Bayer Aktiengesellschaft, priority 1997, dated 2002).
Blank lines part the entries; values can stand above or below the compound they belong to.

Experiments:
weeds [1] = assay: Pre-emergence test, overall action; format: in vivo; details: result in words
Protocol: (§1) Solvent: 5 parts by weight of acetone
(§2) Emulsifier: 1 part by weight of alkylaryl polyglycol ether
(§3) To produce a suitable preparation of active compound, 1 part by weight of active compound is mixed with the stated amount of solvent, the stated amount of emulsifier is added and the concentrate is diluted with water to the desired concentration.
(§4) Seeds of the test plants are sown in normal soil. After about 24 hours, the soil is sprayed with the preparation of active compound such that the particular amounts of active compound desired are applied per unit area. The concentration of the spray liquor is chosen so that the particular amounts of active compound desired are applied in 1000 l of water/ha.
(§5) After three weeks, the degree of damage to the plants is rated in % damage in comparison with the development of the untreated control.
(§6) 0%=no effect (like untreated control)

weeds [2] = assay: Post-emergence test, overall action; format: in vivo; details: result in words
Protocol: as §1, §2
(§7) To produce a suitable preparation of active compound, I part by weight of active compound is mixed with the stated amount of solvent, the stated amount of emulsifier is added and the concentrate is diluted with water to the desired concentration.
as §4, with “Test plants having a height” for “Seeds”, “5-15 cm” for “the test plants”, “are” for “are sown in normal soil. After about 24 hours, the soil is”
as §5, §6

Alopecurus [3] = assay: Pre-emergence test (greenhouse); format: in vivo; details: 1000 g of ai./ha, rated after three weeks vs untreated control, 0%=no effect, 100%=total destruction
Protocol: as §1, §2, §3, §4, §5, §6

Setaria = assay: Pre-emergence test (greenhouse); format: in vivo; details: 1000 g of ai./ha, rated after three weeks vs untreated control, 0%=no effect, 100%=total destruction
Protocol: as §1, §2, §3, §4, §5, §6

Amaranthus [4] = assay: Pre-emergence test (greenhouse); format: in vivo; details: 1000 g of ai./ha, rated after three weeks vs untreated control, 0%=no effect, 100%=total destruction
Protocol: as §1, §2, §3, §4, §5, §6

Galium [5] = assay: Pre-emergence test (greenhouse); format: in vivo; details: 1000 g of ai./ha, rated after three weeks vs untreated control, 0%=no effect, 100%=total destruction
Protocol: as §1, §2, §3, §4, §5, §6

Sinapis [6] = assay: Pre-emergence test (greenhouse); format: in vivo; details: 1000 g of ai./ha, rated after three weeks vs untreated control, 0%=no effect, 100%=total destruction
Protocol: as §1, §2, §3, §4, §5, §6

Abutilon [7] = assay: Pre-emergence test (greenhouse); format: in vivo; details: 1000 g of ai./ha, rated after three weeks vs untreated control, 0%=no effect, 100%=total destruction
Protocol: as §1, §2, §3, §4, §5, §6

Maize = assay: Pre-emergence test (greenhouse), crop plant; format: in vivo; details: 1000 g of ai./ha, rated after three weeks vs untreated control, 0%=no effect, 100%=total destruction
Protocol: as §1, §2, §3, §4, §5, §6

Alopecurus [8] = assay: Post-emergence test/greenhouse; format: in vivo; details: 1000 g of ai./ha, test plants 5-15 cm, rated after three weeks vs untreated control, 0%=no effect, 100%=total destruction
Protocol: as §1, §2, §7
as §4, with “Test plants having a height” for “Seeds”, “5-15 cm” for “the test plants”, “are” for “are sown in normal soil. After about 24 hours, the soil is”
as §5, §6

Amaranthus [9] = assay: Post-emergence test/greenhouse; format: in vivo; details: 1000 g of ai./ha, test plants 5-15 cm, rated after three weeks vs untreated control, 0%=no effect, 100%=total destruction
Protocol: as §1, §2, §7
as §4, with “Test plants having a height” for “Seeds”, “5-15 cm” for “the test plants”, “are” for “are sown in normal soil. After about 24 hours, the soil is”
as §5, §6

Galium [10] = assay: Post-emergence test/greenhouse; format: in vivo; details: 1000 g of ai./ha, test plants 5-15 cm, rated after three weeks vs untreated control, 0%=no effect, 100%=total destruction
Protocol: as §1, §2, §7
as §4, with “Test plants having a height” for “Seeds”, “5-15 cm” for “the test plants”, “are” for “are sown in normal soil. After about 24 hours, the soil is”
as §5, §6

Sinapis [11] = assay: Post-emergence test/greenhouse; format: in vivo; details: 1000 g of ai./ha, test plants 5-15 cm, rated after three weeks vs untreated control, 0%=no effect, 100%=total destruction
Protocol: as §1, §2, §7
as §4, with “Test plants having a height” for “Seeds”, “5-15 cm” for “the test plants”, “are” for “are sown in normal soil. After about 24 hours, the soil is”
as §5, §6

Abutilon [12] = assay: Post-emergence test/greenhouse; format: in vivo; details: 1000 g of ai./ha, test plants 5-15 cm, rated after three weeks vs untreated control, 0%=no effect, 100%=total destruction
Protocol: as §1, §2, §7
as §4, with “Test plants having a height” for “Seeds”, “5-15 cm” for “the test plants”, “are” for “are sown in normal soil. After about 24 hours, the soil is”
as §5, §6

melting point: 96 °C
Structure (SMILES): CCc1nc(N)nc(NC(CC)COCc2ccc(F)cc2)n1 (racemic) [Example 1, 2-amino-4-ethyl-6-[1-(4-fluorobenzyloxymethyl)-propylamino]-1,3,5-triazine]

melting point: 114 °C
Structure (SMILES): CCC(COCc1ccccc1)Nc1nc(N)nc(C(C)(C)F)n1 (centres unmarked) [Example 8]
action against weeds (weeds [1]): very strong action against weeds | action against weeds (weeds [2]): very strong action against weeds

melting point: 104 °C
Structure (SMILES): CCC(COCc1cccc(Cl)c1)Nc1nc(N)nc(C(C)(C)F)n1 (centres unmarked) [Example 14]
action against weeds (weeds [1]): very strong action against weeds | action against weeds (weeds [2]): very strong action against weeds

Continued, compound first:

Structure (SMILES): CCC(COCc1ccccc1C)Nc1nc(NC(C)=O)nc(C(C)(C)F)n1 (racemic) [Example 2]
melting point: 108 °C

Structure (SMILES): CCC(COCc1ccccc1)Nc1nc(N)nc(C(C)(C)F)n1 (centres unmarked) [drawing 495]
degree of damage to the plants, Alopecurus (Alopecurus [3]): 100% | degree of damage to the plants, Setaria (Setaria): 100% | degree of damage to the plants, Amaranthus (Amaranthus [4]): 100% | degree of damage to the plants, Galium (Galium [5]): 100% | degree of damage to the plants, Sinapis (Sinapis [6]): 100% | degree of damage to the plants, Abutilon (Abutilon [7]): 100%

Structure (SMILES): CCC(COCc1cccc(Cl)c1)Nc1nc(N)nc(C(C)(C)F)n1 (centres unmarked) [drawing 496]
degree of damage to the plants, Maize (Maize): 10% | degree of damage to the plants, Alopecurus (Alopecurus [3]): 95% | degree of damage to the plants, Amaranthus (Amaranthus [4]): 100% | degree of damage to the plants, Sinapis (Sinapis [6]): 90% | degree of damage to the plants, Abutilon (Abutilon [7]): 95%

Structure (SMILES): CCC(COCc1ccccc1)Nc1nc(N)nc(C(C)(C)F)n1 (centres unmarked) [drawing 497]
degree of damage to the plants, Alopecurus (Alopecurus [8]): 95% | degree of damage to the plants, Amaranthus (Amaranthus [9]): 100% | degree of damage to the plants, Galium (Galium [10]): 90% | degree of damage to the plants, Sinapis (Sinapis [11]): 100% | degree of damage to the plants, Abutilon (Abutilon [12]): 100%

Structure (SMILES): CCC(COCc1cccc(Cl)c1)Nc1nc(N)nc(C(C)(C)F)n1 (centres unmarked) [drawing 498]
degree of damage to the plants, Alopecurus (Alopecurus [8]): 100% | degree of damage to the plants, Amaranthus (Amaranthus [9]): 100% | degree of damage to the plants, Galium (Galium [10]): 95% | degree of damage to the plants, Sinapis (Sinapis [11]): 100% | degree of damage to the plants, Abutilon (Abutilon [12]): 100%
